Measured values as given in patent publication US11938122B2, “5-[[4-[2-[5-(1-hydroxyethyl)pyridin-2-yl]ethoxy]phenyl]methyl]-1,3- thiazolidine-2,4-dione for treating nonalcoholic fatty liver disease” (Minoryx Therapeutics S.L., priority 2016, dated 2024).

What was measured:
Assay in all cases: CYP inhibition, cocktail incubation, pooled human liver microsomes
Assay type in all cases: in vitro ADME
CYP1A2 = target: T1, CYP1A2 (Homo sapiens, UniProt P05177); settings: reaction ACET
T1 construct: in incubations with a pool of human liver microsomes; from tissue; host or cells: pooled human liver microsomes
T1 sequence (P05177 1-516): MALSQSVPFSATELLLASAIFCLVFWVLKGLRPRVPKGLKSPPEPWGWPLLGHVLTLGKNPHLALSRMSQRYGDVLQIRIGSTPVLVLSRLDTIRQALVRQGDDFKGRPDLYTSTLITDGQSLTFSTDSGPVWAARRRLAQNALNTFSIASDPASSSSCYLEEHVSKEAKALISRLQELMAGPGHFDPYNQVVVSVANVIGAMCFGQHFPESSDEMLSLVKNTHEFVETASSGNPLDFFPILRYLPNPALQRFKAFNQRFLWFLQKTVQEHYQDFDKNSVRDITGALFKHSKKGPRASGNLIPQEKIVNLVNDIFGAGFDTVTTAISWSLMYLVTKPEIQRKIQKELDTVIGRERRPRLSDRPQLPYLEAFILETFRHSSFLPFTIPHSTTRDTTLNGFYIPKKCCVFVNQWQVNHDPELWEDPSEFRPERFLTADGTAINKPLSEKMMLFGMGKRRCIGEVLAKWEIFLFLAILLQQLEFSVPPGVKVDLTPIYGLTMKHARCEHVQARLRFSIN
Protocol: (§1) Inhibition was screened using a cocktail incubation with CYP specific substrates for eight major drug metabolizing CYP enzymes (CYPs 1A2, 2A6, 2B6, 2C8, 2C9, 2C19, 2D6 and 3A4) in incubations with a pool of human liver microsomes. In reversible inhibition, MIN-102 was incubated with buffer, microsomes, cofactor NADPH and CYP-specific substrate cocktail mix for 15 min. In TDI study, buffer and microsomes were preincubated with MIN-102 in the presence and absence of cofactor NADPH for 0 or 30 min to elucidate the possible time-dependency of inhibition. Secondary incubation was conducted with CYP-specific substrate cocktail mix for 30 min. MIN-102 was used at final concentrations of 0.01, 0.1, 1, 10, and 100 μM in both assays.

CYP2C8 = target: T2, CYP2C8 (Homo sapiens, UniProt P10632); settings: reaction OH-REPA
T2 construct: in incubations with a pool of human liver microsomes; from tissue; host or cells: pooled human liver microsomes
T2 sequence (P10632 1-490): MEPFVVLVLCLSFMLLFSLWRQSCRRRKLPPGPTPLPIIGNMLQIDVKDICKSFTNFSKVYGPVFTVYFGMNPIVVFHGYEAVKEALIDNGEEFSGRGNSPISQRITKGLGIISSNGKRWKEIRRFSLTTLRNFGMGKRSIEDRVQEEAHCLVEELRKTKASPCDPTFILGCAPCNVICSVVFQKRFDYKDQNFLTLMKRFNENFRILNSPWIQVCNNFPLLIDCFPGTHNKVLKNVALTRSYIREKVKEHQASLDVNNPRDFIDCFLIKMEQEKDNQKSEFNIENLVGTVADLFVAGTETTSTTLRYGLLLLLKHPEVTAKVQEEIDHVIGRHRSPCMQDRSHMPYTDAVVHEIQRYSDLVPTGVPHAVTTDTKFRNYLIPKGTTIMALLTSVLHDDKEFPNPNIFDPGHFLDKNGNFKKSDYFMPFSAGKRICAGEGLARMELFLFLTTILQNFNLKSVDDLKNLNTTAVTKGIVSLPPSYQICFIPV
Protocol: as §1

CYP2C19 = target: T3, CYP2C19 (Homo sapiens, UniProt P33261)
T3 construct: in incubations with a pool of human liver microsomes; from tissue; host or cells: pooled human liver microsomes
T3 sequence (P33261 whole entry): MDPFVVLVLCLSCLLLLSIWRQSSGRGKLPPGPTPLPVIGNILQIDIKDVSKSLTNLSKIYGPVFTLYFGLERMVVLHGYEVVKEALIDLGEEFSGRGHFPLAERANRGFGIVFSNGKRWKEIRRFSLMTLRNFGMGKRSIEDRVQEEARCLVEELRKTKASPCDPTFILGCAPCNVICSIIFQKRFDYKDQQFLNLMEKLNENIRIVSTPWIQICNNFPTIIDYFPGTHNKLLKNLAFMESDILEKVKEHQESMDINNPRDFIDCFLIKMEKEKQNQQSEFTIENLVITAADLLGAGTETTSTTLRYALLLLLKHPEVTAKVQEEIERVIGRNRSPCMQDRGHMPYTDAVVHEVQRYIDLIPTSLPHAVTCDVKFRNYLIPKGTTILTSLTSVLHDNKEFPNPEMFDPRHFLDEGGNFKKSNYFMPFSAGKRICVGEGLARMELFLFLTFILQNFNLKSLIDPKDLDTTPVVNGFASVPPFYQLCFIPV
Protocol: as §1

CYP2A6 = target: T4, CYP2A6 (Homo sapiens, UniProt P11509); settings: reaction 7OH-COU
T4 construct: in incubations with a pool of human liver microsomes; from tissue; host or cells: pooled human liver microsomes
T4 sequence (P11509 1-494): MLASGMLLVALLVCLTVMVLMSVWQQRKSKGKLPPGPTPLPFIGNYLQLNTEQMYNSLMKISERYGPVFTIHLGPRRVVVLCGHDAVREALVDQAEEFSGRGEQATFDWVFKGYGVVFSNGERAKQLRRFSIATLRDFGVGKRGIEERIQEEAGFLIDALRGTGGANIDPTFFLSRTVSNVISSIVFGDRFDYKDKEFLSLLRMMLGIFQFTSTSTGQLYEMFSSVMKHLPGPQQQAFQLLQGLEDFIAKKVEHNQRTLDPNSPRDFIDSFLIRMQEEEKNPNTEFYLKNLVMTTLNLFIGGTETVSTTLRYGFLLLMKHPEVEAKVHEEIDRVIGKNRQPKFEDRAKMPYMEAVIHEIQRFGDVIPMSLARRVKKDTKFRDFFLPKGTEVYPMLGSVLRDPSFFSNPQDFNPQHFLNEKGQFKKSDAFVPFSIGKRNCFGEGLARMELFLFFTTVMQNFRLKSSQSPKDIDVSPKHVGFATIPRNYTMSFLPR
Protocol: as §1

CYP2D6 = target: T5, CYP2D6 (Homo sapiens, UniProt P10635); settings: reaction O-dem-DEX
T5 construct: in incubations with a pool of human liver microsomes; from tissue; host or cells: pooled human liver microsomes
T5 sequence (P10635 whole entry): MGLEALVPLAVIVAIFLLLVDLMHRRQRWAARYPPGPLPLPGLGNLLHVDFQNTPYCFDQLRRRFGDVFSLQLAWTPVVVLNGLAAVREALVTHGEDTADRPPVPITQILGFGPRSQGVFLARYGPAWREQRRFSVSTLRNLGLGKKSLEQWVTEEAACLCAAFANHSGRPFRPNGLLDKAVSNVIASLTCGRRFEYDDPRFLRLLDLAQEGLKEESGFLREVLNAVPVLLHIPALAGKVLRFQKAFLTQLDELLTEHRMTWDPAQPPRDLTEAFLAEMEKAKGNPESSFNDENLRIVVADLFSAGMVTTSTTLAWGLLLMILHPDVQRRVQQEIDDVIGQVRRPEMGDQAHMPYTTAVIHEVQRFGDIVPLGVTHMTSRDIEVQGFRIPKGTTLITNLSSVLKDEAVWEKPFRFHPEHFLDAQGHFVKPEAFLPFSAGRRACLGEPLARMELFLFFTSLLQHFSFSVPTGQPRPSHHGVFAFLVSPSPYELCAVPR
Protocol: as §1

CYP2C9 = target: T6, CYP2C9 (Homo sapiens, UniProt P11712); settings: reaction OH-DICL
T6 construct: in incubations with a pool of human liver microsomes; from tissue; host or cells: pooled human liver microsomes
T6 sequence (P11712 whole entry): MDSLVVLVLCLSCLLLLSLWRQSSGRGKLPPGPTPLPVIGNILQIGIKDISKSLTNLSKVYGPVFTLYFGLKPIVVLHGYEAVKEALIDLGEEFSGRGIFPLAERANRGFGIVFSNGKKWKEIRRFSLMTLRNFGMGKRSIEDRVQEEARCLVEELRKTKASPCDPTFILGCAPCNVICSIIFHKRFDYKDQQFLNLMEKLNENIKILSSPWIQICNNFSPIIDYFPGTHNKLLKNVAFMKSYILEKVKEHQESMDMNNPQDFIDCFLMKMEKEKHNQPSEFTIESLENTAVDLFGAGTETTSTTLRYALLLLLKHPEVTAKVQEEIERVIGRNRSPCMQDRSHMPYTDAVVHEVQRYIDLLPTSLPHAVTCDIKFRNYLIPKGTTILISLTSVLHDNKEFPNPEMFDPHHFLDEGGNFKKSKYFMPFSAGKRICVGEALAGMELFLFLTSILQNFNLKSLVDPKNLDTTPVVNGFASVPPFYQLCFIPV
Protocol: as §1

CYP3A4 = target: T7, CYP3A4 (Homo sapiens, UniProt P08684)
T7 construct: in incubations with a pool of human liver microsomes; from tissue; host or cells: pooled human liver microsomes
T7 sequence (P08684 whole entry): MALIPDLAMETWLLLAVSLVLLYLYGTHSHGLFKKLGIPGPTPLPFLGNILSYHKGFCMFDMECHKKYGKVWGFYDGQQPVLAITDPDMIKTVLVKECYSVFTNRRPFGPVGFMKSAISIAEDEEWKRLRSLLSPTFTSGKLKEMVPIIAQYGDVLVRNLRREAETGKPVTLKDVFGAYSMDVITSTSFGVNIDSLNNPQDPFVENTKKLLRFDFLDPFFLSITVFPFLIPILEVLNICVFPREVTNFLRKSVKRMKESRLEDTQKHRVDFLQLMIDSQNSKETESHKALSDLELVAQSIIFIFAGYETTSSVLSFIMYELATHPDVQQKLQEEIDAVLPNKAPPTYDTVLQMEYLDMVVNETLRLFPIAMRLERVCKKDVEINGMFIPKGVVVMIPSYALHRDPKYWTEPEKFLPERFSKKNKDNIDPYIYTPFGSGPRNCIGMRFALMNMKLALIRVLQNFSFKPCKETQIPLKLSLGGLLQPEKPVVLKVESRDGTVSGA
Protocol: as §1

CYP2B6 = target: T8, CYP2B6 (Homo sapiens, UniProt P20813); settings: reaction OH-BUP
T8 construct: in incubations with a pool of human liver microsomes; from tissue; host or cells: pooled human liver microsomes
T8 sequence (P20813 1-491): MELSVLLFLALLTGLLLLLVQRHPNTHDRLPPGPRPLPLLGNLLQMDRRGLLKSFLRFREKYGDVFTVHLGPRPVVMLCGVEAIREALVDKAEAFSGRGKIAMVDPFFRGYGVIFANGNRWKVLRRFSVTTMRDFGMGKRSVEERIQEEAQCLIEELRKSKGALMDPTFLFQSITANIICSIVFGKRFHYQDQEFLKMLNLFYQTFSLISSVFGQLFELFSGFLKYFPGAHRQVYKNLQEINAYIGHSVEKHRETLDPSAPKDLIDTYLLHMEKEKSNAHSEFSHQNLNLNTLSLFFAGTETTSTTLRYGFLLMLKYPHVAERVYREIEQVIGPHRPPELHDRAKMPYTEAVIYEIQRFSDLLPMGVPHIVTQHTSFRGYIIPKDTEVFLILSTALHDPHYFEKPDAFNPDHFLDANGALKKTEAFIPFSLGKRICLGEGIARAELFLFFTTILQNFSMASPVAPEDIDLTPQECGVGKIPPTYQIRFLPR
Protocol: as §1

IC50 (CYP1A2): > 100 µM
IC50 (CYP2C8): 102 µM
Ki (CYP2C8; read-out: Tentative Ki): 84 µM
IC50 (CYP2C19; reaction 5-OH-OME): > 100 µM
IC50 (CYP2C19; reaction dem-OME): > 100 µM
IC50 (CYP2A6): > 100 µM
IC50 (CYP2D6): > 100 µM
IC50 (CYP2C9): 103 µM
Ki (CYP2C9; read-out: Tentative Ki): 52 µM
IC50 (CYP3A4; reaction 1-OH-MDZ): > 100 µM
IC50 (CYP3A4; reaction 3-OH-OME): > 100 µM
IC50 (CYP3A4; reaction 6β-OH-TES): > 100 µM
IC50 (CYP3A4; reaction SO-OME): > 100 µM
IC50 (CYP2B6): > 100 µM
SMILES: CC(O)c1ccc(CCOc2ccc(CC3SC(=O)NC3=O)cc2)nc1 (racemic) [MIN-102, 5-[[4-[2-[5-(1-hydroxyethyl)pyridin-2-yl]ethoxy]phenyl]methyl]-1,3-thiazolidine-2,4-dione]
